Results taken from PubChem BioAssay (NCI).
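In this assay, cells in 96-well plates receive the compound at five concentrations for 48 hours. Endpoints are linearly interpolated between the surrounding concentrations. TGI denotes the concentration required for complete inhibition of growth.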

What was measured:
Assay in all cases: DTP human tumour cell line panel, 48 h
[1] = test system: 786-0 renal
[2] = test system: A549 NSCLC
[3] = test system: ACHN renal
[4] = test system: BT-549 breast
[5] = test system: CAKI-1 renal
[6] = test system: CCRF-CEM leukemia
[7] = test system: COLO 205 colon
[8] = test system: DU-145 prostate
[9] = test system: EKVX NSCLC
[10] = test system: HCT-116 colon
[11] = test system: HCT-15 colon
[12] = test system: HL-60(TB) leukemia
[13] = test system: HOP-62 NSCLC
[14] = test system: HT29 colon
[15] = test system: K-562 leukemia
[16] = test system: KM12 colon
[17] = test system: LOX IMVI melanoma
[18] = test system: M14 melanoma
[19] = test system: MALME-3M melanoma
[20] = test system: MCF7 breast
[21] = test system: MDA-MB-435
[22] = test system: MDA-N
[23] = test system: MOLT-4 leukemia
[24] = test system: NCI-H226 lung
[25] = test system: NCI-H23 lung
[26] = test system: NCI-H522 lung
[27] = test system: NCI/ADR-RES ovarian
[28] = test system: OVCAR-3 ovarian
[29] = test system: OVCAR-4 ovarian
[30] = test system: OVCAR-5 ovarian
[31] = test system: OVCAR-8 ovarian
[32] = test system: PC-3 prostate
[33] = test system: RPMI-8226 leukemia
[34] = test system: RXF 393 renal
[35] = test system: SF-268 CNS
[36] = test system: SF-295 CNS
[37] = test system: SF-539 CNS
[38] = test system: SK-MEL-2 melanoma
[39] = test system: SK-MEL-28 melanoma
[40] = test system: SK-MEL-5 melanoma
[41] = test system: SK-OV-3 ovarian
[42] = test system: SN12C renal
[43] = test system: SNB-19 CNS
[44] = test system: SNB-75 CNS
[45] = test system: SR leukemia
[46] = test system: SW-620 colon
[47] = test system: T-47D breast
[48] = test system: TK-10 renal
[49] = test system: U251 CNS
[50] = test system: UACC-257 melanoma
[51] = test system: UACC-62 melanoma
[52] = test system: UO-31 renal
[53] = test system: A498 renal
[54] = test system: HCC-2998 colon
[55] = test system: HOP-92 NSCLC
[56] = test system: HS 578T breast
[57] = test system: IGROV1 ovarian
[58] = test system: MDA-MB-231 breast
[59] = test system: NCI-H460 lung

Measured: TGI

CC(=O)Oc1ccccc1C(=O)O
not listed: [53] | [54] | [55] | [56] | [57] | [58] | [59]
> 100 µM: all other assays above

CCOC(=O)c1[nH]c2ccccc2c1C(=O)C[C@H](NC(=O)C(F)(F)F)C(=O)OC
not listed: [34] | [41] | [47] | [51]
> 100 µM: all other assays above
